Laboratory results taken from ChEMBL document CHEMBL1126702, “Modeling the anticancer action of some retinoid compounds by making use of the OASIS method” (J Med Chem, 1993).

Columns and labels:
[1] = Partition coefficient (logP); format: physicochemical; settings: octanol/water
Cricetinae gen. sp. = test: Tested for anticancer activity against hamster tracheal cells; format: functional, Trachea

Row | SMILES | logP ([1]; read-out: logP) | logP [1] | -Log ED50 (Cricetinae gen. sp.)
1 | CC(=O)/C=C(C)/C=C/C=C(C)/C=C/C1(O)C(C)(C)CCCC1(C)O (stereo not drawn) | 4.2 |  | 6.7
2 | CCC(=O)/C=C(C)/C=C/C=C(C)/C=C/C1=C(C)CCCC1(C)C | 8.12 |  | 9.3
3 | CC(=O)C1=C(/C=C/C(C)=C/C=C/C(C)=C/C=O)C(C)(C)CC1 | 6.63 |  | 9.3
4 | COC(C)C1=C(/C=C/C(C)=C/C=C/C(C)=C/C=O)C(C)(C)CC1 (stereo not drawn) | 6.58 |  | 9.7
5 | CC(=O)/C=C(C)/C=C/C=C(C)/C=C/C1=C(C)CCCC1(C)C | 7.63 |  | 9.52
6 | CC1=C(/C=C/C(C)=C/C=C/C(C)=C/C=O)C(C)(C)CCC1O (stereo not drawn) | 6.1 |  | 9.15
7 | CCC(=O)/C=C(C)/C=C/C=C(C)/C=C/c1c(C)cc(O)c(C)c1C | 7.34 |  | 7
8 | CCC(=O)/C=C(C)/C=C/C=C(C)/C=C/c1c(C)cc(OC)c(C)c1C | 7.22 |  | 7.7
9 | CC(/C=C/C=C(C)/C=C/C12OC1(C)CCCC2(C)C)=C\C=O (stereo not drawn) | 4.91 |  | 8.7
10 | CC(=O)/C=C(C)/C=C/C=C(C)/C=C/C12OC1(C)CCCC2(C)C (stereo not drawn) | 5.08 |  | 8.52
11 | CC(/C=C/C=C(C)/C=C/C1C(C)CCCC1(C)C)=C\C=O (stereo not drawn) | 7.29 |  | <9
12 | CC1=C(/C=C/C(C)=C/C=C/C(C)=C/C=O)C(C)(C)CCC1=O | 6.63 |  | 9.15

More lines, main results first:

Row | logP ([1]; read-out: logP) | logP [1] | SMILES | -Log ED50 (Cricetinae gen. sp.)
13 | 3.69 |  | CC(/C=C/C=C(C)/C=C/c1ccco1)=C\C=O | 6
14 | 5.37 |  | CC(/C=C/C=C(C)/C=C/c1ccccc1)=C\C=O | 6
15 | 4.13 |  | CC(/C=C/C=C(C)/C=C/c1ccsc1)=C\C=O | >8
16 |  | 7.09 | CC1=CCCC(C)(C)C1/C=C/C(C)=C/C=C/C(C)=C/C=O (stereo in doubt; 16) | <8
17 | 4.69 |  | CC(/C=C/C=C(C)/C=C/c1cccnc1)=C\C=O | 6.52
18 | 6.57 |  | COc1cc(C)c(/C=C/C(C)=C/C=C/C(C)=C/C=O)c(C)c1C | 8.3
19 | 7.47 |  | CC1=CCCC(C)(C)C1/C=C/C(C)=C/C=C/C(C)=C/C=O (stereo in doubt; 19) | 10.52
